Data as given in PubChem BioAssay (NCI).
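These data come from cells grown in 96-well plates and exposed to compound for 48 hours at five concentrations. GI50 is the concentration that inhibits growth by half. TGI marks complete inhibition of growth.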

What was measured:
Experiment in all cases: inhibition of tumour cell growth, NCI panel, 48 h
[1] = system: 786-0 renal
[2] = system: A498 renal
[3] = system: CAKI-1 renal
[4] = system: IGROV1 ovarian
[5] = system: UACC-257 melanoma
[6] = system: HOP-62 NSCLC
[7] = system: UO-31 renal
[8] = system: HCT-116 colon
[9] = system: HT29 colon
[10] = system: U251 CNS
[11] = system: BT-549 breast
[12] = system: HOP-92 NSCLC
[13] = system: DU-145 prostate
[14] = system: SNB-75 CNS
[15] = system: LOX IMVI melanoma
[16] = system: NCI-H226 lung
[17] = system: M14 melanoma
[18] = system: HCT-15 colon
[19] = system: RPMI-8226 leukemia
[20] = system: MALME-3M melanoma
[21] = system: SK-MEL-2 melanoma
[22] = system: SW-620 colon
[23] = system: MDA-MB-468 breast
[24] = system: HL-60(TB) leukemia
[25] = system: NCI-H460 lung
[26] = system: SF-539 CNS
[27] = system: HCC-2998 colon
[28] = system: UACC-62 melanoma
[29] = system: SR leukemia
[30] = system: MDA-MB-231 breast
[31] = system: CCRF-CEM leukemia
[32] = system: EKVX NSCLC
[33] = system: HS 578T breast
[34] = system: NCI-H23 lung
[35] = system: SK-MEL-5 melanoma
[36] = system: MOLT-4 leukemia
[37] = system: SF-295 CNS
[38] = system: OVCAR-3 ovarian
[39] = system: K-562 leukemia
[40] = system: ACHN renal
[41] = system: KM12 colon
[42] = system: SK-MEL-28 melanoma
[43] = system: SN12C renal
[44] = system: T-47D breast
[45] = system: SK-OV-3 ovarian
[46] = system: NCI-H522 lung
[47] = system: OVCAR-5 ovarian

For `C=Cn1cc(C(=O)O)c(=O)c2cc(F)c(N3CCN(c4nccc(-c5nccs5)n4)CC3)cc21`, the GI50 [1] was 225 nM, the TGI [1] was 2920 nM and the GI50 [2] was 55.4 nM. The TGI [2] was 2780 nM, the GI50 [3] was 23.7 nM and the TGI [3] was 839 nM. It also gave a GI50 [4] of 41.8 nM, a TGI [4] of 1510 nM and a GI50 [5] of 172 nM. The TGI [5] was 2900 nM, the GI50 [6] was 139 nM and the TGI [6] was 3690 nM. The GI50 [7] was 25.9 nM, the TGI [7] was 782 nM and the GI50 [8] was 30.4 nM. The TGI [8] was 1420 nM, the GI50 [9] was 46.4 nM and the TGI [9] was 2490 nM. The GI50 [10] was 85.8 nM, the TGI [10] was > 100000 nM and the GI50 [11] was 194 nM. For the same molecule, the TGI [11] was 1560 nM, the GI50 [12] was 210 nM and the TGI [12] was 1660 nM. For the same molecule, the GI50 [13] was 145 nM, the TGI [13] was 4080 nM and the GI50 [14] was 115 nM. For the same molecule, the TGI [14] was 1630 nM, the GI50 [15] was 35 nM and the TGI [15] was 195 nM. It also gave a GI50 [16] of 60.7 nM, a TGI [16] of 517 nM and a GI50 [17] of 238 nM. It also gave a TGI [17] of 3380 nM, a GI50 [18] of 40.5 nM and a TGI [18] of 1600 nM. For the same molecule, the GI50 [19] was 62 nM, the TGI [19] was 1450 nM and the GI50 [20] was 50.6 nM. It also gave a TGI [20] of 1330 nM, a GI50 [21] of 77.1 nM and a TGI [21] of 1260 nM. For the same molecule, the GI50 [22] was 23.4 nM, the TGI [22] was 2690 nM and the GI50 [23] was 109 nM. It also gave a TGI [23] of 1230 nM, a GI50 [24] of 209 nM and a TGI [24] of 2950 nM. The GI50 [25] was 21.5 nM, the TGI [25] was 1390 nM and the GI50 [26] was 72.8 nM. The TGI [26] was 2310 nM, the GI50 [27] was 80.4 nM and the TGI [27] was 2030 nM. The GI50 [28] was 24.6 nM, the TGI [28] was 175 nM and the TGI [29] was 1530 nM. The GI50 [30] was 345 nM, the TGI [30] was 3440 nM and the GI50 [31] was 61.6 nM. The TGI [31] was > 100000 nM, the GI50 [32] was 283 nM and the TGI [32] was 4300 nM. For the same molecule, the GI50 [33] was 86.5 nM, the TGI [33] was 1490 nM and the GI50 [34] was 55.8 nM. It also gave a TGI [34] of 1270 nM, a GI50 [35] of 36.4 nM and a TGI [35] of 576 nM. It also gave a GI50 [36] of 40.4 nM, a TGI [36] of 2520 nM and a GI50 [37] of 29.1 nM. It also gave a TGI [37] of 1550 nM, a GI50 [38] of 88.6 nM and a TGI [38] of 2770 nM. The GI50 [39] was 61.4 nM, the TGI [39] was > 100000 nM and the GI50 [40] was 16.6 nM. The TGI [40] was 1170 nM, the GI50 [41] was 78.5 nM and the TGI [41] was 2670 nM. It also gave a GI50 [42] of 96.4 nM, a TGI [42] of 1260 nM and a GI50 [43] of 119 nM. For the same molecule, the TGI [43] was 2530 nM, the GI50 [44] was 118 nM and the TGI [44] was > 100000 nM. It also gave a GI50 [45] of 208 nM, a TGI [45] of 3790 nM and a GI50 [46] of 66.7 nM. The TGI [46] was 1280 nM, the GI50 [47] was 234 nM and the TGI [47] was 3370 nM.
